Molecules are shown by their SMILES.

One assay has as its system LAMBSQUARTER
Kind of assay: Test F. It counts as in vivo, Chenopodium album. The source says:
(§1) Weed species were planted 3 or 4 per 15-cm diameter pot in Sassafras sandy loam (pH 6.8; 1% OM). Cotton was planted separately in the same sized pot. Postemergence plantings were made 12-16 days prior to treating so plants were in the 2- to 3-leaf stage (5-12 cm tall). Preemergence plantings were made the day before treating. Compounds were sprayed in a suitable non-phytotoxic solvent at 374 l/ha, then after 3 weeks of growth in a greenhouse, plant responses were visually rated on a percent scale where 0=no injury and 100=plant death.

A further assay concerns VELVETLEAF
As to the kind of experiment: Test F. It counts as in vivo, Abutilon theophrasti.
Source text: as §1

For another assay, the system named is PRICKLY SIDA. Kind of assay: Test F. Type of assay: in vivo, Sida spinosa.
Source text: as §1

Another assay has as its system GOOSEGRASS
Kind of assay: Test F. It counts as in vivo, Eleusine indica.
Source text: as §1

The subject of the next assay is LADY SMARTWEED
Kind of assay: Test F. It counts as in vivo, Polygonum persicaria.
Source text: as §1

Another assay relates to RICE INDICA TOL. Kind of assay: Test C rice paddy. Type of assay: in vivo. To be noted: 21 days. The method in brief: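 Silt loam saturated; rice (Japonica, Indica; 2.0–2.5 leaf) and weed seedlings/sprouted tubers (water plantain, Scirpus, Cyperus) transplanted, barnyardgrass seeded. D3–4: flood to 3 cm, held throughout. ≤24 h later: test cpd in nonphytotoxic solvent into paddy water. Greenhouse.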

`C=C(c1ccc(F)cc1)C(O)(Cn1cncn1)c1ccc(F)cc1F` (centres unmarked) [Example 4, 2-(2,4-Difluorophenyl)-3-(4-fluorophenyl)-1-(1H-1,2,4-triazol-1-yl)-3-buten-2-ol]: the plant response in the assay on LAMBSQUARTER (PREEMERGENCE 0032 GM/HA) amounted to 0%; in the assay with LAMBSQUARTER (PREEMERGENCE 0064 GM/HA) it was 20%; in the assay on LAMBSQUARTER (PREEMERGENCE 0125 GM/HA), 20%; in the assay on LAMBSQUARTER (PREEMERGENCE 0250 GM/HA), 60%; in the assay on LAMBSQUARTER (PREEMERGENCE 0500 GM/HA), 70%; with VELVETLEAF (PREEMERGENCE 0032 GM/HA) it was 0%. Also, the plant response was found to be 0% in the assay with VELVETLEAF (PREEMERGENCE 0064 GM/HA); 0% with VELVETLEAF (PREEMERGENCE 0125 GM/HA); 0% in the assay on VELVETLEAF (PREEMERGENCE 0250 GM/HA); 30% in the assay on VELVETLEAF (PREEMERGENCE 0500 GM/HA); 0% with PRICKLY SIDA (PREEMERGENCE 0032 GM/HA); 0% with PRICKLY SIDA (PREEMERGENCE 0064 GM/HA). Besides, the plant response in the assay on PRICKLY SIDA (PREEMERGENCE 0125 GM/HA) turned out to be 0%; in the assay on PRICKLY SIDA (PREEMERGENCE 0250 GM/HA), 100%; with PRICKLY SIDA (PREEMERGENCE 0500 GM/HA), 90%; in the assay on GOOSEGRASS (PREEMERGENCE 0032 GM/HA), 80%; in the assay on GOOSEGRASS (PREEMERGENCE 0064 GM/HA) it was 80%; in the assay with GOOSEGRASS (PREEMERGENCE 0125 GM/HA), 100%. Further, the plant response in the assay on GOOSEGRASS (PREEMERGENCE 0250 GM/HA) was 100%; with GOOSEGRASS (PREEMERGENCE 0500 GM/HA) it was 100%; in the assay on LADY SMARTWEED (PREEMERGENCE 0032 GM/HA) it was 0%; in the assay with LADY SMARTWEED (PREEMERGENCE 0064 GM/HA), 0%; in the assay with LADY SMARTWEED (PREEMERGENCE 0125 GM/HA) it was 0%; with LADY SMARTWEED (PREEMERGENCE 0250 GM/HA) it was 20%. In addition, in the assay on LADY SMARTWEED (PREEMERGENCE 0500 GM/HA), the plant response is reported as 20%.

Consider `C=C(c1ccccc1Cl)C(O)(Cn1cncn1)c1ccc(F)cc1F` (centres unmarked) [Example 35], for which the plant response with RICE INDICA TOL (0032 G/HA) was determined as 0; in the assay with RICE INDICA TOL (0125 G/HA), 55; in the assay on RICE INDICA TOL (0500 G/HA), 55; in the assay with RICE INDICA TOL (2000 G/HA), 60.

The values are drawn from patent publication US4965280A, “Antifungal carbinols” (E. I. Du Pont de Nemours and Company, priority 1989, dated 1990).
